Laboratory results from ChEMBL document CHEMBL6177982, “Structural Optimization of Pyrazole Compounds as Hsp90 Regulators with Enhanced Antitumor Activity” (J Med Chem, 2025).
The source made the active and inactive calls. The rule behind the calls is not given here.

Experiments:
HCT-116 [1] = experiment: Antiproliferative activity against CDC37 knockout human HCT-116 cells assessed as inhibition of cell proliferation incubated for 72 hrs by MTT assay; format: functional, cell-based; details: HCT-116, 72 h
HCT-116 [2] = experiment: Antiproliferative activity against human HCT-116 cells assessed as inhibition of cell proliferation incubated for 72 hrs by MTT assay; format: functional, cell-based; details: HCT-116, 72 h
[3] = Selectivity ratio of IC50 for antiproliferative activity against CDC37 knockout human HCT-116 cells to IC50 for antiproliferative activity against human HCT-116 cells; format: functional
[4] = Permeability of compound at pH 7.4 incubated for 4 hrs by PAMPA based UV analysis; format: ADME; details: read-out: permeability
[5] = Stability of compound in simulated intestinal fluid at 100 uM incubated for 12 hrs; format: physicochemical; details: simulated gi fluid
[6] = Metabolic stability in human liver microsomes assessed as terminal elimination half-life at 1 uM preincubated for 5 mins followed by NADPH addition and measured up to 120 mins by LC-MS/MS analysis; format: ADME, Microsome; details: time < 125 min, read-out: LambdaZ (converted)
[7] = Metabolic stability in rat liver microsomes assessed as terminal elimination half-life at 1 uM preincubated for 5 mins followed by NADPH addition and measured up to 120 mins by LC-MS/MS analysis; format: ADME, Microsome; details: time < 125 min, read-out: LambdaZ (converted)
[8] = Metabolic stability in human liver microsomes assessed as clearance at 1 uM preincubated for 5 mins followed by NADPH addition and measured up to 120 mins by LC-MS/MS analysis; format: ADME, Microsome; details: time < 125 min, read-out: CLH
[9] = Cmax in male Sprague-Dawley rat at 1 mg/kg, iv by LC-MS/MS analysis; format: ADME, organism-based; details: in vivo
[10] = AUC (0 to infinity) in male Sprague-Dawley rat at 1 mg/kg, iv by LC-MS/MS analysis; format: ADME, organism-based; details: in vivo
[11] = Volume of distribution at steady state in male Sprague-Dawley rat at 1 mg/kg, iv by LC-MS/MS analysis; format: ADME, organism-based; details: in vivo, read-out: Vdss
[12] = Tmax in male Sprague-Dawley rat at 5 mg/kg, ip by LC-MS/MS analysis; format: ADME, organism-based; details: in vivo
[13] = Half-life in male Sprague-Dawley rat at 5 mg/kg, ip by LC-MS/MS analysis; format: ADME, organism-based; details: in vivo
[14] = Cmax in male Sprague-Dawley rat at 5 mg/kg, ip by LC-MS/MS analysis; format: ADME, organism-based; details: in vivo
[15] = AUC (0 to infinity) in male Sprague-Dawley rat at 5 mg/kg, ip by LC-MS/MS analysis; format: ADME, organism-based; details: in vivo
[16] = Clearance in male Sprague-Dawley rat at 5 mg/kg, ip by LC-MS/MS analysis; format: ADME, organism-based; details: in vivo
[17] = Cmax in male Sprague-Dawley rat at 10 mg/kg, IG by LC-MS/MS analysis; format: ADME, organism-based; details: in vivo, po
[18] = AUC (0 to infinity) in male Sprague-Dawley rat at 10 mg/kg, IG by LC-MS/MS analysis; format: ADME, organism-based; details: in vivo, po
HCT-116 [19] = experiment: Upregulation of HSP90 level in human HCT-116 cells at 0.1 to 5 uM incubated for 24 hrs by Western blot analysis; format: functional, cell-based; details: dose 0.1-5 µM
HCT-116 [20] = experiment: Inhibition of Myc-tagged HSP90 C598A mutant (unknown origin)/CDC37 (unknown origin) protein-protein interaction transfected in human HCT-116 cells at 0.5 to 5 uM incubated for 12 hrs by co-immunoprecipitation analysis; format: cell-based; details: dose 0.5-5 µM
HCT-116 [21] = experiment: Inhibition of Myc-tagged HSP90 (unknown origin)/AKT(unknown origin) protein-protein interaction transfected in human HCT-116 cells at 1 to 5 uM incubated for 12 hrs by co-immunoprecipitation analysis; format: cell-based; details: dose 1-5 µM
HCT-116 [22] = experiment: Inhibition of Myc-tagged HSP90 (unknown origin)/CDK4 (unknown origin) protein-protein interaction transfected in human HCT-116 cells at 1 to 5 uM incubated for 12 hrs by co-immunoprecipitation analysis; format: cell-based; details: dose 1-5 µM
HCT-116 [23] = experiment: Inhibition of Myc-tagged HSP90 C598A mutant (unknown origin)/AKT(unknown origin) protein-protein interaction transfected in human HCT-116 cells at 1 to 5 uM incubated for 12 hrs by co-immunoprecipitation analysis; format: cell-based; details: dose 1-5 µM
HCT-116 [24] = experiment: Inhibition of Myc-tagged HSP90 C598A mutant (unknown origin)/CDK4 (unknown origin) protein-protein interaction transfected in human HCT-116 cells at 1 to 5 uM incubated for 12 hrs by co-immunoprecipitation analysis; format: cell-based; details: dose 1-5 µM
[25] = target: Heat shock protein HSP 90-beta/Hsp90 co-chaperone Cdc37 (Homo sapiens) (UniProt P08238+Q16543); experiment: Inhibition of Myc-tagged HSP90 (unknown origin)/CDC37 (unknown origin) protein-protein interaction transfected in human HCT-116 cells incubated for 12 hrs by co-immunoprecipitation analysis; format: cell-based; details: dose 0.5-5 µM
HT-29 = experiment: Antiproliferative activity against human HT-29 cells assessed as inhibition of cell proliferation incubated for 72 hrs by MTT assay; format: functional, cell-based; details: HT-29, 72 h
HT-1080 = experiment: Antiproliferative activity against human HT-1080 cells assessed as inhibition of cell proliferation incubated for 72 hrs by MTT assay; format: functional, cell-based; details: HT-1080, 72 h
HCT-116 [26] = experiment: Antiproliferative activity against human HCT-116 cells assessed as inhibition of cell proliferation incubated for 48 hrs by MTT assay; format: functional, cell-based; details: HCT-116, 48 h
[27] = Toxicity in female Balb/c nude mouse xenografted with human HCT-116 cells assessed as effect on body weight at 5 to 30 mg/kg, ip administered every two days for 14 days; format: organism-based; details: in vivo, 336 h, dose 5-30 mg/kg, time 14 day
HCT-116 [28] = experiment: Antitumor activity against human HCT-116 cells xenografted in female Balb/c nude mouse assessed as inhibition of tumor growth at 5 to 30 mg/kg, ip administered every two days for 14 days; format: functional, organism-based; details: dose 5-30 mg/kg, time 14.0 day
Mus musculus = experiment: Upregulation of HSP90 protein level in female Balb/c mouse tumor xenografted with human HCT-116 cells at 5 to 30 mg/kg, ip administered every two days for 14 days by Western blot analysis; format: functional, organism-based; details: dose 5-30 mg/kg, time 14.0 day
[29] = Toxicity in female Balb/c nude mouse xenografted with human HCT-116 cells assessed as effect on heart weight at 5 to 30 mg/kg, ip administered every two days for 14 days; format: organism-based; details: in vivo, 336 h, dose 5-30 mg/kg, time 14 day
[30] = Toxicity in female Balb/c nude mouse xenografted with human HCT-116 cells assessed as effect on lung weight at 5 to 30 mg/kg, ip administered every two days for 14 days; format: organism-based; details: in vivo, 336 h, dose 5-30 mg/kg, time 14 day
[31] = Toxicity in female Balb/c nude mouse xenografted with human HCT-116 cells assessed as effect on kidney weight at 5 to 30 mg/kg, ip administered every two days for 14 days; format: organism-based; details: in vivo, 336 h, dose 5-30 mg/kg, time 14 day
[32] = Toxicity in female Balb/c nude mouse xenografted with human HCT-116 cells assessed as pathological changes in heart at 5 to 30 mg/kg, ip administered every two days for 14 days by H and E staining based analysis; format: organism-based; details: in vivo, 336 h, dose 5-30 mg/kg, time 14 day
[33] = Toxicity in female Balb/c nude mouse xenografted with human HCT-116 cells assessed as pathological changes in kidney at 5 to 30 mg/kg, ip administered every two days for 14 days by H and E staining based analysis; format: organism-based; details: in vivo, 336 h, dose 5-30 mg/kg, time 14 day

IC50 (HCT-116 [1]): > 50 µM | IC50 (HCT-116 [2]): 1.08 µM | Papp at 4 h [4]: 426 nm/s | Stability [5]: Stable | half-life at 1 µM [6]: 53.4 min | half-life at 1 µM [7]: 25.2 min | microsomal CLint at 1 µM [8]: 26 µL/min/mg | Cmax [9]: 3.68 µg/mL | AUC(0-inf) [10]: 1.46 µg·h/mL | Vd [11]: 0.52 L/kg | Tmax [12]: 8.4 min | half-life [13]: 82.2 min | Cmax [14]: 8.35 µg/mL | AUC(0-inf) [15]: 6.77 µg·h/mL | CL/F [16]: 0.73 L/h/kg | Cmax [17]: 2.4 µg/mL | AUC(0-inf) [18]: 9.81 µg·h/mL | inhibition [25]: Dose-dependent-effect | IC50 (HT-29): 2.02 µM | IC50 (HT-1080): 2.71 µM | IC50 (HCT-116 [26]): 4.18 µM
SMILES: O=S(=O)(/C=C/c1cn(-c2ccccc2)nc1-c1cccnc1)c1ccccc1
Ratio IC50 [3]: >50 | Activity (HCT-116 [19]): inactive | inhibition (HCT-116 [20]): inactive | inhibition (HCT-116 [21]): Active | inhibition (HCT-116 [22]): Active | inhibition (HCT-116 [23]): inactive | inhibition (HCT-116 [24]): inactive | Activity [27]: Non-toxic | Activity (HCT-116 [28]): Active | Activity (Mus musculus): inactive | Activity [29]: Non-toxic | Activity [30]: Non-toxic | Activity [31]: Non-toxic | Activity [32]: Non-toxic | Activity [33]: Non-toxic
